≈ marks a conversion by molar mass, not a printed value.
Assays:
S. aureus = test system: S. aureus; parameters: method as in PMID 35914415; conditions: reducing cell surface hydrophobicity and membrane permeability; cited from earlier work
[1] = test system: Escherichia coli, Staphylococcus aureus and Candida albicans; assay: Microplate serial dilution MIC assay, stated across the three strains; format: cell-based; conditions: across the three strains (E. coli, S. aureus, C. albicans)
Experimental: Three microorganisms used in this study, two bacterial strains (Escherichia coli ATCC 25922 - Gram-negative and Staphylococcus aureus ATCC 25923 - Gram-positive) and a fungus (Candida albicans ATCC 10231) were procured from Anatech Instruments (Pty) Ltd, Randburg, Gauteng, South Africa (Anatech, Kwik-stick®). Escherichia coli and S. aureus were cultured in nutrient agar while the fungus (C. albicans ATCC 10231) was cultured on sabouraud dextrose agar (SDA) and incubated for 24 h under aerobic conditions at 37 °C. Pure colonies of microorganisms from the agar were transferred onto nutrient broth and sabouraud dextrose broth (SDB) to obtain an overnight culture. Compounds 1 – 6 were weighed and dissolved in 5% Dimethyl sulfoxide (DMSO) to a final working stock solution of 4 mg/mL. Standard antibiotics Ciprofloxacin and Amphotericin-B were also dissolved in 5% DMSO. The samples were kept at 20 °C in the dark until used. Antimicrobial activity was done using the microplate serial dilution method by Eloff, ([14]). The minimum inhibitory concentration (MIC) was defined as the lowest concentration of the compound capable of inhibiting microbial growth. […] A staining reagent, 50 µL Resazurin sodium salt (0.2 mg/mL) was used as an indicator of microbial growth and the MIC was visually determined ([15]).

RAW264.7 cells [2] = assay: MTT cytotoxicity assay on normal macrophage cells; format: cell-based; conditions: Mus musculus, RAW264.7 normal murine macrophage cells, 24 h
Experimental: (§1) Cytotoxicity and antiproliferative effects of compounds were evaluated against Murine macrophage cells (RAW264.7) and breast adenocarcinoma cancer cells (MDA-MB-231) using the spectrophotometric, 3-(4,5-dimethylthiazol-2-yl)-2,5-diphenyltetrazolium bromide (MTT) assay ([16]). Cells (5 × 10^4 cell/well) were seeded in Dulbecco’s modified eagle’s medium (DMEM; Gibco) in a 96 well plate for 24 h incubation at 37 °C in 5% CO2 and treated with compounds (2.5 - 200 µg/mL) and positive control, Doxorubicin (2.5 - 200 µM). Untreated cells and 5% DMSO treated cells were assayed as negative and solvent control, respectively. After 24 h incubation, 20 µL MTT dye (5 mg/mL) was pipetted in all wells including wells with untreated cells, and incubated for 4 h. The medium was aspirated and 100 µL of DMSO was added to all the wells to dissolve the formazan crystals and the optical density (OD) was measured after an hour at 570 nm using a microplate reader.

MDA-MB-231 cells = assay: MTT cytotoxicity assay on breast cancer cells; format: cell-based, human; conditions: for IC50: Homo sapiens, MDA-MB-231 breast cancer cells, MTT, 24 h; for selectivity index (SI): toxicity on RAW264.7 compared to MDA-MB-231 cancer cells
Experimental: as §1

[3] = test system: Staphylococcus aureus ATCC 25923; assay: Microplate serial dilution MIC assay (resazurin); format: cell-based; conditions: ATCC25923, S. aureus ATCC 25923, 24 h at 37 °C, tested 7.8-1000 µg/mL
Experimental: (§2) Three microorganisms used in this study, two bacterial strains (Escherichia coli ATCC 25922 - Gram-negative and Staphylococcus aureus ATCC 25923 - Gram-positive) and a fungus (Candida albicans ATCC 10231) were procured from Anatech Instruments (Pty) Ltd, Randburg, Gauteng, South Africa (Anatech, Kwik-stick®). Escherichia coli and S. aureus were cultured in nutrient agar while the fungus (C. albicans ATCC 10231) was cultured on sabouraud dextrose agar (SDA) and incubated for 24 h under aerobic conditions at 37 °C. Pure colonies of microorganisms from the agar were transferred onto nutrient broth and sabouraud dextrose broth (SDB) to obtain an overnight culture. Compounds 1 – 6 were weighed and dissolved in 5% Dimethyl sulfoxide (DMSO) to a final working stock solution of 4 mg/mL. Standard antibiotics Ciprofloxacin and Amphotericin-B were also dissolved in 5% DMSO. The samples were kept at 20 °C in the dark until used. Antimicrobial activity was done using the microplate serial dilution method by Eloff, ([14]). The minimum inhibitory concentration (MIC) was defined as the lowest concentration of the compound capable of inhibiting microbial growth. The microorganisms were adjusted according to 0.5 McFarland standard solution to a final concentration of 1.5 × 10^4 CFU/mL in sterile 0.85% sodium chloride (NaCl) solution. Compounds were tested at the concentration range of 7.8-1000 µg/mL in 96 well plates and incubated with microorganisms for 24 h at 37 °C. Ciprofloxacin and Amphotericin-B were used as positive controls for bacterial and fungal assays, respectively. In addition, sterile distilled 5% DMSO was used as a negative control. A staining reagent, 50 µL Resazurin sodium salt (0.2 mg/mL) was used as an indicator of microbial growth and the MIC was visually determined ([15]).

[4] = test system: Escherichia coli ATCC 25922; assay: Microplate serial dilution MIC assay (resazurin); format: cell-based; conditions: ATCC25922, E. coli ATCC 25922, 24 h at 37 °C, tested 7.8-1000 µg/mL
Experimental: as §2

[5] = test system: Candida albicans ATCC 10231; assay: Microplate serial dilution MIC assay (resazurin); format: cell-based; conditions: ATCC10231, C. albicans ATCC 10231, 24 h at 37 °C, tested 7.8-1000 µg/mL
Experimental: as §2

RAW264.7 cells [6] = assay: LPS-induced intracellular ROS production (H2DCF-DA assay); format: cell-based, murine; conditions: RAW264.7, compound 10 µg/mL, LPS 10 µg/mL; for ROS production level: relative to LPS-treated cells
Experimental: Lipopolysaccharide (LPS)-induced reactive oxygen species (ROS) production was probed using an oxidative cell-permeant fluorescent dye 2',7'-dichlorodihydrofluorescein diacetate (H2DCF-DA) ([17]). RAW264.7 cells (5 × 10^4 cells/well) were seeded overnight into a 96 well plate and treated with compounds (10 µg/mL) at concentrations ≤ IC50 values and LPS (10 µg/mL) for 24 h at 37 °C in 5% CO2 rich incubator, then 10 μM H2DCF-DA dye (100 µL) was added for an hour. The fluorescence intensity which correlates to ROS production was measured on a microplate reader at 485 and 535 nm excitation and emission, respectively. Data obtained were subjected to analysis using GraphPad Prism (version 8.2).
Inflammation is a physiological response stimulated by the organism as a way of overcoming pathogenic events employed as a defense mechanism. However, an unregulated inflammatory response can lead to several diseases, including cancer. ROS-inducing approaches rely on the fact that increasing the ROS level over the cytotoxic threshold can result in cellular impairment, damaging DNA, RNA, proteins and lipids in normal cells, even though macrophage cells cannot phagocytize cancerous cells, but release a reasonable amount of pro-inflammatory cytokines that quench cancer cells yet are cytoprotective to normal cells ([6]). In this regard, it was considered that the compounds tested would be able to reduce the production of LPS-induced ROS in normal macrophages. Determination of ROS production in RAW264.7 cells was conducted using the non-toxic IC50 value of 10 µg/mL for all compounds (Table 2). Cells were pre-treated with compounds for 20 h and LPS was added in all treated cells except the untreated control cells. Thereafter H2DCFDA was introduced to the cells. […]
Figure 3 Effects of S. nigrescens compounds 1-6 on LPS-induced ROS production by RAW264.7 cells measured by a micro plate reader (Thermo Scientific Varioskan Flash). […] Experiments were conducted in triplicate and data is expressed as the mean ± SD with p-values calculated against control ^**p < 0.01; ^***p < 0.001

LPS-induced RNS = test system: LPS-induced RNS; parameters: method as in PMID 18254591, PMID 30302324; conditions: read-out: IC50, inhibition of LPS-induced RNS; cited from earlier work
LPS-induced ROS = test system: LPS-induced ROS; parameters: method as in PMID 18254591, PMID 30302324; conditions: read-out: IC50, inhibition of LPS-induced ROS; cited from earlier work

Row | MIC [3] [µg/mL] | MIC [4] [µg/mL] | MIC [5] [µg/mL] | SMILES | MIC (S. aureus) [µg/mL] | MIC [1] [µg/mL] | IC50 (RAW264.7 cells [2]) [µg/mL] | IC50 (MDA-MB-231 cells) [µg/mL] | selectivity index (SI) (MDA-MB-231 cells) | reduction of ROS (RAW264.7 cells [6]) | IC50 (LPS-induced RNS) [µM] | IC50 (LPS-induced ROS) [µM] | ROS production level (RAW264.7 cells [6])
1 | – | – | – | O=c1cc(-c2ccc(O)cc2)oc2c([C@@H]3O[C@H](CO)[C@@H](O)[C@H](O)[C@H]3O)c(O)cc(O)c12 [Apigenin-8-C-glucoside] | 126 (≈ 291 µM) | – | – | – | – | – | – | – | –
2 | – | – | – | C=C(C=O)C1CCC2(C)CCC3(C)C(CCC4C5(C)CCC(O)C(C)(C)C5CCC43C)C12 (stereo not drawn) [Compound 1, 3β-hydroxy-20(29)-en-lupan-30-al] | – | ≥ 250 | 16.9 (≈ 38.3 µM) | 26.6 (≈ 60.5 µM) | – | – | – | – | –
3 | – | – | – | C=C(CO)C1CCC2(C)CCC3(C)C(CCC4C5(C)CCC(O)C(C)(C)C5CCC43C)C12 (stereo not drawn) [Compound 2, 30-hydroxylup-20(29)-en-3β-ol] | – | ≥ 250 | 22.8 (≈ 51.5 µM) | 11.9 (≈ 26.8 µM) | 1.92 | – | – | – | –
4 | 125 (≈ 411 µM) | 250 (≈ 821 µM) | 62.5 (≈ 205 µM) | CC1=CC23CCC4C(C)(CO)CCCC4(CO)C2CCC1C3 (stereo not drawn) [Compound 3, ent-kaur-15-en-18,20-diol] | – | – | 18.5 (≈ 60.8 µM) | 12.6 (≈ 41.4 µM) | 1.46 | – | – | – | –
5 | – | – | – | O=c1c(O)c(-c2ccc(O)c(O)c2)oc2c(O)c(O)ccc12 [Compound 4, melanoxetin] | – | – | 15.8 (≈ 52.3 µM) | 22.2 (≈ 73.4 µM) | – | approximately 40% | 6.9 | 12.5 | –
6 | 31.2 (≈ 103 µM) | 62.5 (≈ 207 µM) | 31.2 (≈ 103 µM) | O=c1c(O)c(-c2ccc(O)c(O)c2)oc2cc(O)cc(O)c12 [Compound 5, quercetin] | – | – | 22.6 (≈ 74.8 µM) | 20.6 (≈ 68.2 µM) | 1.09 | – | – | – | below 50%
7 | 31.2 (≈ 98.8 µM) | 62.5 (≈ 198 µM) | 31.2 (≈ 98.8 µM) | COc1c(-c2ccc(O)c(O)c2)oc2cc(O)cc(O)c2c1=O [Compound 6, quercetin-3-O-methyl ether] | – | – | 28.7 (≈ 90.8 µM) | 14 (≈ 44.4 µM) | 2.04 | – | – | – | below 50%
8 | – | – | – | COc1cccc2c1C(=O)c1c(O)c3c(c(O)c1C2=O)C[C@@](O)(C(=O)CO)C[C@@H]3O[C@H]1C[C@H](N)[C@H](O)[C@H](C)O1 [doxorubicin, reference compound] | – | – | 10.6 (≈ 19.5 µM) | 9.35 (≈ 17.2 µM) | 1.13 | – | – | – | –
